Assay results published in US20030186334A1, “KTS-disintegrins” (Temple University - Of the Commonwealth System of Higher …, priority 2001, published 2003).

Key:
angiogenesis = experiment: Japanese quail chorioallantoic membrane (CAM) angiogenesis assay; assay type: in vivo; conditions: 20 μg and 50 μg, no angiogenesis stimulators
Protocol: The disintegrins obtustatin and eristostatin were evaluated for their effect on angiogenesis via a Japanese quail chorioallantoic membrane (CAM) assay, as is known in the art (see, for example, Parsons-Wingerter P et al., “A Novel Assay of Angiogenesis in the Quail Chorioallantoic Membrane: Stimulation by bFGF and Inhibition by Angiostatin According to Fractal Dimension and Grid Intersection.” Microvascular Research 55(3):201-214, 1998, the disclosure of which is herein incorporated by reference).

HMVECs = experiment: endothelial cell tube formation assay on Matrigel; assay type: cell-based, human; conditions: 60 μM, 24 hours
Protocol: An endothelial cell tube formation assay was performed to assess the anti-angiogenic effect of obtustatin in vitro as follows. Twenty-four well plates were coated with a 1:2 dilution of Matrigel™ in EBM-2 medium, which was polymerized by incubation for 1 hour at 37° C. HMVECs (1.2×10^5 cells per well) were added onto the polymerized Matrigel™ (BD Biosciences, Lexington, Ky.) in EBM-2 medium, in the absence or presence of 60 μM obtustatin. The plates were incubated for 24 hours at 37° C., and analyzed for the extent of tube formation by observation with an inverted microscope, using a magnification of 10× ocular and 10× objective.

## Obtustatin (CTTGPCCRQCKLKPAGTTCWKTSLTSHYCTGKSCDCPLYPG)
angiogenesis
  inhibitory activity on angiogenesis (fractal dimension): up to 30 % of control
HMVECs
  formation of HMVEC tubes on Matrigel: completely abolished
